Assay results as given in publication PMC4574540, “Aspergillus niger membrane-associated proteome analysis for the identification of glucose transporters” (Biotechnology for Biofuels, 2015).

Legend:
MstG = biological target: T1, MstG (Aspergillus niger, UniProt A2QKT1); assay: competition of […]-glucose uptake in yeast cells; type: cell-based; conditions: read-out: % inhibition at 10 mM
T1 construct: gene An05g01290; also called pRS426H7), expressed in S. cerevisiae EBY.VW4000 hexose transporter null mutant, whole-cell uptake
T1 sequence (A2QKT1 1-542): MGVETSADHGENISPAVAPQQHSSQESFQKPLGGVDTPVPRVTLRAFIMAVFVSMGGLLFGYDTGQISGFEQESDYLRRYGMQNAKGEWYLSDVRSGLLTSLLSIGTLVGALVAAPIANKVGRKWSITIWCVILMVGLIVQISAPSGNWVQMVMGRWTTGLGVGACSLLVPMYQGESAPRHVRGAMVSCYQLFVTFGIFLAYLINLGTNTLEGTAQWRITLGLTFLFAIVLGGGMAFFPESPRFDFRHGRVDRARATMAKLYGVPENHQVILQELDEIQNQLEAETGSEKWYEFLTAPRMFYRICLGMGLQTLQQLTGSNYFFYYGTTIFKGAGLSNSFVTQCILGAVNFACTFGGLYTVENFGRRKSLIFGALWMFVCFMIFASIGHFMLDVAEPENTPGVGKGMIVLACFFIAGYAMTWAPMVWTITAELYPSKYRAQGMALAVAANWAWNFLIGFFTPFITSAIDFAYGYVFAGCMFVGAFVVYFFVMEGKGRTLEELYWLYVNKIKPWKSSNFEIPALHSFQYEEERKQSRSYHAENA

MstH = biological target: T2, MstH (Aspergillus niger, UniProt A5ABZ0); assay: competition of […]-glucose uptake in yeast cells; type: cell-based; conditions: read-out: % inhibition at 10 mM
T2 construct: gene An15g03940; also called pRS426H7), expressed in S. cerevisiae EBY.VW4000 hexose transporter null mutant, whole-cell uptake
T2 sequence (A5ABZ0 1-527): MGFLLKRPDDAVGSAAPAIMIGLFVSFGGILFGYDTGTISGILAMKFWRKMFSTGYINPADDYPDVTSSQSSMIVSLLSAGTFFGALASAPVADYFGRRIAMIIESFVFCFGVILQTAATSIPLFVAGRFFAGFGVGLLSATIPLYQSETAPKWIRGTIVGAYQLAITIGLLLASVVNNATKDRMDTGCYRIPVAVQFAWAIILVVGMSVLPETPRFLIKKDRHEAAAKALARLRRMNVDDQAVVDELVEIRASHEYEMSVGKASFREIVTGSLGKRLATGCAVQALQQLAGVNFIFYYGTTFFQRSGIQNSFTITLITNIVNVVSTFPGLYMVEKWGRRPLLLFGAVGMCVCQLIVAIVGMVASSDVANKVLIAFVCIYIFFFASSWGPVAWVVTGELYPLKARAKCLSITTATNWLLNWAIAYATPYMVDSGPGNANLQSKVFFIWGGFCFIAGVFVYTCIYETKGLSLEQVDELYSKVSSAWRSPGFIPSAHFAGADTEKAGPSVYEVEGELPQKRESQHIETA

Compound	inhibition at 10000 µM (MstG)	inhibition at 10000 µM (MstH)
OCC1(O)OC[C@@H](O)[C@@H](O)[C@@H]1O (some centres unmarked) [fructose]	29%	50%
OC[C@H]1OC(O)[C@H](O)[C@@H](O)[C@H]1O (some centres unmarked) [galactose]	39%	
OC[C@H]1OC(O)[C@@H](O)[C@@H](O)[C@@H]1O (some centres unmarked) [mannose]		70%
OC1OC[C@@H](O)[C@H](O)[C@H]1O (some centres unmarked) [xylose]	25%	
